# How the values were obtained:
# Assay in all cases: Kinase inhibition test
# Format in all cases: biochemical
# [1] = molecular target: CDK5/p35 (Homo sapiens, UniProt Q00535)
# Text: (§1) Table 2 Pharmacological profile of SM-345431 (part 2) | column: IC50 (μm)
# [2] = molecular target: MKK6 (Homo sapiens, UniProt P52564)
# Text: as §1
# [3] = molecular target: SAPK2a (Homo sapiens, UniProt Q16539)
# Text: as §1
# [4] = molecular target: EphA2 (Homo sapiens, UniProt P29317)
# Text: as §1
# [5] = molecular target: PKCγ (Homo sapiens, UniProt P05129)
# Text: as §1
# [6] = molecular target: PAK4 (Homo sapiens, UniProt O96013)
# Text: as §1
# [7] = molecular target: Fes (Homo sapiens, UniProt P07332)
# Text: as §1
# [8] = molecular target: cSRC (Homo sapiens, UniProt P12931)
# Text: as §1
# [9] = molecular target: PAK2 (Homo sapiens, UniProt Q13177)
# Text: as §1
# [10] = molecular target: FGFR2 (Homo sapiens, UniProt P21802)
# Text: as §1
# [11] = molecular target: PI 3-Kγ (Homo sapiens, UniProt P48736)
# Text: as §1
# [12] = molecular target: TrkB (Homo sapiens, UniProt Q16620)
# Text: as §1
# [13] = molecular target: Flt1 (Homo sapiens, UniProt P17948)
# Text: as §1
# [14] = molecular target: GSK3β (Homo sapiens, UniProt P49841)
# Text: as §1
# [15] = molecular target: FGFR3 (Homo sapiens, UniProt P22607)
# Text: as §1
# [16] = molecular target: MAPK2 (Homo sapiens, UniProt P28482)
# Text: as §1
# [17] = molecular target: ROCK-I (Homo sapiens, UniProt Q13464)
# Text: as §1
# [18] = molecular target: FGFR4 (Homo sapiens, UniProt P22455)
# Text: as §1
# [19] = molecular target: EphB2 (Homo sapiens, UniProt P29323)
# Text: as §1
# [20] = molecular target: IGF-1R (Homo sapiens, UniProt P08069)
# Text: as §1
# [21] = molecular target: KDR (Homo sapiens, UniProt P35968)
# Text: as §1
# [22] = molecular target: EGFR (Homo sapiens, UniProt P00533)
# Text: as §1
# [23] = molecular target: EphA4 (Homo sapiens, UniProt P54764)
# Text: as §1
# [24] = molecular target: MEK4 (Homo sapiens, UniProt P45985)
# Text: as §1
# [25] = molecular target: PKBβ (Homo sapiens, UniProt P31751)
# Text: as §1
# [26] = molecular target: EphB4 (Homo sapiens, UniProt P54760)
# Text: as §1
# [27] = molecular target: FGFR1 (Homo sapiens, UniProt P11362)
# Text: as §1
# [28] = molecular target: Fyn (Homo sapiens, UniProt P06241)
# Text: as §1
# [29] = molecular target: GSK3α (Homo sapiens, UniProt P49840)
# Text: as §1
# [30] = molecular target: PKBα (Homo sapiens, UniProt P31749)
# Text: as §1
# [31] = molecular target: CaMKII
# Text: as §1
# [32] = molecular target: MEK1 (Homo sapiens, UniProt Q02750)
# Text: as §1
# [33] = molecular target: JAK3 (Homo sapiens, UniProt P52333)
# Text: as §1
# [34] = molecular target: TrkA (Homo sapiens, UniProt P04629)
# Text: as §1
# [35] = molecular target: Flt3 (Homo sapiens, UniProt P36888)
# Text: as §1
# Chain of Fyn (P06241 whole entry, species assumed): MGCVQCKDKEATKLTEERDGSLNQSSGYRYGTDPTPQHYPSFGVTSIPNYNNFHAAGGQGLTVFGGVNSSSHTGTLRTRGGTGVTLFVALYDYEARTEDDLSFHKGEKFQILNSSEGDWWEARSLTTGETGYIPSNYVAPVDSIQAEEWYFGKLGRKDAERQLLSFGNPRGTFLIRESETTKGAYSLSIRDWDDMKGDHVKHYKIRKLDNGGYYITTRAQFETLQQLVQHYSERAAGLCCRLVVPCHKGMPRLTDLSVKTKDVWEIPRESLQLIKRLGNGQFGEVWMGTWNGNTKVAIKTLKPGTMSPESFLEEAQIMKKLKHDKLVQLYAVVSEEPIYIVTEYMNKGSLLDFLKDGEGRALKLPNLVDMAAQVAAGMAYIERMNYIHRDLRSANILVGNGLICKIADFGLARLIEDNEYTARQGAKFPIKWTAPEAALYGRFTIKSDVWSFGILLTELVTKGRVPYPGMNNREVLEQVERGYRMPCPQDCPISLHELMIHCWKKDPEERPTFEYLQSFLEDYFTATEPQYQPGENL
# Chain of cSRC (P12931 whole entry, species assumed): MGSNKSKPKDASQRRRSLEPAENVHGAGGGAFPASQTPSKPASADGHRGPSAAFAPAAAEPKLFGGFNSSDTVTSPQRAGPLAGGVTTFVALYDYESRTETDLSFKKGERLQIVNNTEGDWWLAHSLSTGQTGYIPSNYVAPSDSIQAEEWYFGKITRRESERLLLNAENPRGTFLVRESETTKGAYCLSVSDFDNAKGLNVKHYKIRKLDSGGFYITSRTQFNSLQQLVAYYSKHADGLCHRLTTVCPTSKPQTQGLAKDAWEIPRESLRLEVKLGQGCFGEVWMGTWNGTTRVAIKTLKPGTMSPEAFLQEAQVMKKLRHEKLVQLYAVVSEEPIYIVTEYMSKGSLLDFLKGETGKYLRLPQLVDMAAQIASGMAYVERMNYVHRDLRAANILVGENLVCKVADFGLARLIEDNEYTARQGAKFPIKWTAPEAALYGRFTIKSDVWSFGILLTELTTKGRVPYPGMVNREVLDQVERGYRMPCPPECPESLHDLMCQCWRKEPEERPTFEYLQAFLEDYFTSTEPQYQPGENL
# Chain of TrkA (P04629 33-796, species assumed): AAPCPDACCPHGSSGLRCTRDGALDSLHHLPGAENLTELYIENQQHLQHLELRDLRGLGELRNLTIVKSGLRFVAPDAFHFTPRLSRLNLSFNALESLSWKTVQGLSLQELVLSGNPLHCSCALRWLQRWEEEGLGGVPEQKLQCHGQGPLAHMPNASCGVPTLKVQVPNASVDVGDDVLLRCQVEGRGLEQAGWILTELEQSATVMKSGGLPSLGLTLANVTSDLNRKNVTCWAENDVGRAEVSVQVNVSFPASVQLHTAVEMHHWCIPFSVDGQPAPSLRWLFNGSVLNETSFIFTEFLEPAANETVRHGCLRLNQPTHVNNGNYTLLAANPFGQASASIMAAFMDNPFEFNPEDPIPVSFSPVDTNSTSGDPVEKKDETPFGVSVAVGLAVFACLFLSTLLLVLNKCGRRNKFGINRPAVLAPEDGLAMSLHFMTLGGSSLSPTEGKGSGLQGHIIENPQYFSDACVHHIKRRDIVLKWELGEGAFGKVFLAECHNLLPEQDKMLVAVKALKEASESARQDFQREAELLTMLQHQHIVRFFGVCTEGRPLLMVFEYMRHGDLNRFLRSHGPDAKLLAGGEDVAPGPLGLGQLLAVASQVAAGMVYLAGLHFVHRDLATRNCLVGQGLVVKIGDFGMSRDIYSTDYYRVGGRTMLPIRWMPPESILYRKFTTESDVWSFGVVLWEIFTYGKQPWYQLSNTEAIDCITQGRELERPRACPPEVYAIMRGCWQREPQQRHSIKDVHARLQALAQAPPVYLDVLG
# Chain of IGF-1R (P08069 31-1367, species assumed): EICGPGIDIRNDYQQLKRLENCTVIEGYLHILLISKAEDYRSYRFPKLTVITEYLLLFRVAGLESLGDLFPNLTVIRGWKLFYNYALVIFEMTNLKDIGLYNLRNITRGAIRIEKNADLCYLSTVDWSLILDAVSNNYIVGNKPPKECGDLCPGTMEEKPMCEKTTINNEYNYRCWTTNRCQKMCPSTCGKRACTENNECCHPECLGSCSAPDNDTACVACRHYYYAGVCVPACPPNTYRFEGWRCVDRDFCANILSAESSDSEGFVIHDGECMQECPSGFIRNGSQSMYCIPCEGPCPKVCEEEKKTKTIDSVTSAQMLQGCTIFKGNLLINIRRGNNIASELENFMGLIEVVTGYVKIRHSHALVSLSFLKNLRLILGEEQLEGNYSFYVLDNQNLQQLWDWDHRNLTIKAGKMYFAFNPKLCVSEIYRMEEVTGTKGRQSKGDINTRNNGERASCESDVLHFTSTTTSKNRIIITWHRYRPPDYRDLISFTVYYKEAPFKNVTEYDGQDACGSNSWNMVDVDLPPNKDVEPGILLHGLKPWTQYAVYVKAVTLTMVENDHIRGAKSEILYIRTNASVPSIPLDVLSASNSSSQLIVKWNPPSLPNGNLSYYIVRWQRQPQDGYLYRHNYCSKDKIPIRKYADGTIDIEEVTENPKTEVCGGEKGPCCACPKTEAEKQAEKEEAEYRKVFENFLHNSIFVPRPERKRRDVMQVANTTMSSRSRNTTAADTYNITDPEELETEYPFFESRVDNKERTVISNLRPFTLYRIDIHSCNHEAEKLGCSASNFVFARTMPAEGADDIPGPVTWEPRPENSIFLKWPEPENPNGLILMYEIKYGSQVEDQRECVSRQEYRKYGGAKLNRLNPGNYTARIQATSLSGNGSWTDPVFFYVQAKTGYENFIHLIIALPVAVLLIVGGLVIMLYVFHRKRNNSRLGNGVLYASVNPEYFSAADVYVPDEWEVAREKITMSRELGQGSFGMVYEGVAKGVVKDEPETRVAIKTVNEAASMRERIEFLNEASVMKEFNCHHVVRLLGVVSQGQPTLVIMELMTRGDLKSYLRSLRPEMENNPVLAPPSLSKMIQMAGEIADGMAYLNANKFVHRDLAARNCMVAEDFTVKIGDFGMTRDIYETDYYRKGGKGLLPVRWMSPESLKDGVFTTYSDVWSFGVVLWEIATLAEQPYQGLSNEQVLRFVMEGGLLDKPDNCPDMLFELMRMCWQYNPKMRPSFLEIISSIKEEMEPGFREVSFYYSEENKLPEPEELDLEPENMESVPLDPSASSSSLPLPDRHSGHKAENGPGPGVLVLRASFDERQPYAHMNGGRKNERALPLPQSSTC
# Chain of FGFR1 (P11362 22-822, species assumed): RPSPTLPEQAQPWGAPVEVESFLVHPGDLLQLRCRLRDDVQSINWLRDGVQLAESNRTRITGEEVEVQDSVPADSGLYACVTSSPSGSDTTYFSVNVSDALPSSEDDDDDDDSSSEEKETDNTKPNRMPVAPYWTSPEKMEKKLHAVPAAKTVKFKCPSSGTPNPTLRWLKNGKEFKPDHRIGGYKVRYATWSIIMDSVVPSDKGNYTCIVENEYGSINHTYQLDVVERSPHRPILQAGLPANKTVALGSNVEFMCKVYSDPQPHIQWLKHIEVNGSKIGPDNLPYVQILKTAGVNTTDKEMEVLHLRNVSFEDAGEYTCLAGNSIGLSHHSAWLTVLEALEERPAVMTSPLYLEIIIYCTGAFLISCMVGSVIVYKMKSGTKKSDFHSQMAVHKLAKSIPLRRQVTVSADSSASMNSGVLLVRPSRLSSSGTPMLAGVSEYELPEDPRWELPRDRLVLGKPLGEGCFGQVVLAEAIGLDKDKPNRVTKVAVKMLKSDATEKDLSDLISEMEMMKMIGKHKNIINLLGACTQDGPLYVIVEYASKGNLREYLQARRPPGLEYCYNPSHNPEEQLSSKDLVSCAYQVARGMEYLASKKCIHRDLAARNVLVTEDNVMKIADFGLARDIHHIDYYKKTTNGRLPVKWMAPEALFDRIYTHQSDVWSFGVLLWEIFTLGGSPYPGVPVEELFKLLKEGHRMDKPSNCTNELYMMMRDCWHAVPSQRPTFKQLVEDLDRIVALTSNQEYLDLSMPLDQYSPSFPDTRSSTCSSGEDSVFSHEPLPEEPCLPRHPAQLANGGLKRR
# Chain of EphA2 (P29317 24-976, species assumed): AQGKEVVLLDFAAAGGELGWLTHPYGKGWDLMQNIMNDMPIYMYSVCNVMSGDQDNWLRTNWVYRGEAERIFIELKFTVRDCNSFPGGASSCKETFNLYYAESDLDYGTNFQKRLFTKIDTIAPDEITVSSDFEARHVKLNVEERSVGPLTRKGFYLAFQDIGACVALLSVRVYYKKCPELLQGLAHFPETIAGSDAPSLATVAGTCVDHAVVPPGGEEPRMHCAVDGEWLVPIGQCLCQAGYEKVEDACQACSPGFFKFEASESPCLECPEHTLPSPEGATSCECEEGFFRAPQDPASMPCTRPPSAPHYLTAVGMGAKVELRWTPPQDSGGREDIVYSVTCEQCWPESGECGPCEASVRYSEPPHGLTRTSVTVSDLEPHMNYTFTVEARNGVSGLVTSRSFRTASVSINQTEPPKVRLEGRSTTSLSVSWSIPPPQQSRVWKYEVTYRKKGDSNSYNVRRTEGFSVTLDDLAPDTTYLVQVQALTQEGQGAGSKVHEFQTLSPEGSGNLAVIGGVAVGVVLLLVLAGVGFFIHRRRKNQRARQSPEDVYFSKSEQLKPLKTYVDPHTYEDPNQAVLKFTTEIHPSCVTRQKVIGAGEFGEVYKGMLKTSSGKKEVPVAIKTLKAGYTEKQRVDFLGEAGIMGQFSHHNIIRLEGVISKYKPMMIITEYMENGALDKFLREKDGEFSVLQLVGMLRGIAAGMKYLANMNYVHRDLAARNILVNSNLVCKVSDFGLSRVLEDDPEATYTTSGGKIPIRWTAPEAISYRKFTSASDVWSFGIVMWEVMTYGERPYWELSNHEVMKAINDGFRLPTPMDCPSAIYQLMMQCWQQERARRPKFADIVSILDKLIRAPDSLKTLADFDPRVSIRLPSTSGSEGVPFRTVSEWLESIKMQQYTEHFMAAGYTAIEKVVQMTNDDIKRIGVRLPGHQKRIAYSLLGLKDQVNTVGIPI
smiles,measurement,setting,value
"CC(=O)c1cc2c(=O)c3c(C(=O)O)c(O)c(O)cc3oc2c(C(C)=O)c1-c1coc2cc(O)c(O)c(C(=O)O)c2c1=O [SM-345431, Vinaxanthone]",IC50,[1],> 10 µM
same,IC50,[2],> 10 µM
same,IC50,[3],> 10 µM
same,IC50,[4],> 10 µM
same,IC50,[5],> 10 µM
same,IC50,[6],> 10 µM
same,IC50,[7],> 10 µM
same,IC50,[8],> 10 µM
same,IC50,[9],> 10 µM
same,IC50,[10],> 10 µM
same,IC50,[11],> 10 µM
same,IC50,[12],> 10 µM
same,IC50,[13],> 10 µM
same,IC50,[14],> 10 µM
same,IC50,[15],0.77 µM
same,IC50,[16],> 10 µM
same,IC50,[17],> 10 µM
same,IC50,[18],0.64 µM
same,IC50,[19],0.68 µM
same,IC50,[20],> 10 µM
same,IC50,[21],> 10 µM
same,IC50,[22],0.9 µM
same,IC50,[23],0.8 µM
same,IC50,[24],> 10 µM
same,IC50,[25],> 10 µM
same,IC50,[26],> 10 µM
same,IC50,[27],> 10 µM
same,IC50,[28],> 10 µM
same,IC50,[29],2.46 µM
same,IC50,[30],> 10 µM
same,IC50,[31],> 10 µM
same,IC50,[32],> 10 µM
same,IC50,[33],> 10 µM
same,IC50,[34],> 10 µM
same,IC50,[35],> 10 µM

# Source: PMC4008261, “Rewiring of regenerated axons by combining treadmill training with semaphorin3A inhibition” (Molecular Brain, 2014)
